Laboratory results published in patent publication US20220281848A1, “PYRAZOLE-SUBSTITUTED PYRROLIDINONES AS HERBICIDES” (FMC Corporation, priority 2019, published 2022).

What was measured:
Assay type in all cases: in vivo
Details in all cases: after 13 d
[1] = test system: giant foxtail (Setaria faberi, SETFA); assay: Test A pre-emergence, giant foxtail
Description: (§1) Seeds of corn (Zea mays, ZEAMX), giant foxtail (Setaria faberi, SETFA), barnyardgrass (Echinochloa crus-galli, ECHCG), ivy-leaved morning glory (Ipomoea hederacea, IPOHE), redroot pigweed (Amaranthus retroflexus, AMARE) and velvetleaf (Abutilon theophrasti, ABUTH) were sown in standard soil in pots. After cultivation for one day under controlled conditions in a glasshouse (at 24/16° C., day/night; 14 h light; 65% humidity), the plants were sprayed with an aqueous spray solution derived from the formulation of the technical active ingredient in acetone/water (50:50) solution containing 0.5% Tween 20 (polyoxyethylene sorbitan monolaurate, CAS RN 9005-64-5) to give a final dose of 15.625, 62.5 or 250 g/ha of test compound.
(§2) The test plants were then grown under controlled conditions in a glasshouse (at 24/16° C., day/night; 14 h light; 65% humidity) and watered twice daily. After 13 d the test was evaluated (100=total damage to plant; 0=no damage to plant).

[2] = test system: ivy-leaved morning glory (Ipomoea hederacea, IPOHE); assay: Test A post-emergence, ivy-leaved morning glory
Description: as §1, with “IPOHE)),” for “IPOHE),”, “8 d” for “one day”
(§3) The test plants were then grown on under controlled conditions in a glasshouse (at 24/16° C., day/night; 14 h light; 65% humidity) and watered twice daily. After 13 d the test was evaluated (100=total damage to plant; 0=no damage to plant).

[3] = test system: ivy-leaved morning glory (Ipomoea hederacea, IPOHE); assay: Test A pre-emergence, ivy-leaved morning glory
Description: as §1, §2

[4] = test system: redroot pigweed (Amaranthus retroflexus, AMARE); assay: Test A post-emergence, redroot pigweed
Description: as §1, with “IPOHE)),” for “IPOHE),”, “8 d” for “one day”
as §3

[5] = test system: giant foxtail (Setaria faberi, SETFA); assay: Test A post-emergence, giant foxtail
Description: as §1, with “IPOHE)),” for “IPOHE),”, “8 d” for “one day”
as §3

[6] = test system: barnyardgrass (Echinochloa crus-galli, ECHCG); assay: Test A pre-emergence, barnyardgrass
Description: as §1, §2

[7] = test system: corn (Zea mays, ZEAMX); assay: Test A pre-emergence, corn
Description: as §1, §2

[8] = test system: corn (Zea mays, ZEAMX); assay: Test A post-emergence, corn
Description: as §1, with “IPOHE)),” for “IPOHE),”, “8 d” for “one day”
as §3

[9] = test system: barnyardgrass (Echinochloa crus-galli, ECHCG); assay: Test A post-emergence, barnyardgrass
Description: as §1, with “IPOHE)),” for “IPOHE),”, “8 d” for “one day”
as §3

[10] = test system: redroot pigweed (Amaranthus retroflexus, AMARE); assay: Test A pre-emergence, redroot pigweed
Description: as §1, §2

[11] = test system: velvetleaf (Abutilon theophrasti, ABUTH); assay: Test A pre-emergence, velvetleaf
Description: as §1, §2

[12] = test system: velvetleaf (Abutilon theophrasti, ABUTH); assay: Test A post-emergence, velvetleaf
Description: as §1, with “IPOHE)),” for “IPOHE),”, “8 d” for “one day”
as §3

| SMILES | damage to plant (100=total damage; 0=no damage) SETFA ([1]; Pre-Emergence at 15.625 g/ha) | damage to plant (100=total damage; 0=no damage) SETFA ([1]; Pre-Emergence at 62.5 g/ha) | damage to plant (100=total damage; 0=no damage) SETFA ([1]; Pre-Emergence at 250 g/ha) | damage to plant (100=total damage; 0=no damage) IPOHE ([2]; Post-Emergence at 15.625 g/ha) | damage to plant (100=total damage; 0=no damage) IPOHE ([2]; Post-Emergence at 62.5 g/ha) | damage to plant (100=total damage; 0=no damage) IPOHE ([2]; Post-Emergence at 250 g/ha) | damage to plant (100=total damage; 0=no damage) IPOHE ([3]; Pre-Emergence at 15.625 g/ha) | damage to plant (100=total damage; 0=no damage) IPOHE ([3]; Pre-Emergence at 62.5 g/ha) | damage to plant (100=total damage; 0=no damage) IPOHE ([3]; Pre-Emergence at 250 g/ha) | damage to plant (100=total damage; 0=no damage) AMARE ([4]; Post-Emergence at 15.625 g/ha) | damage to plant (100=total damage; 0=no damage) AMARE ([4]; Post-Emergence at 62.5 g/ha) | damage to plant (100=total damage; 0=no damage) AMARE ([4]; Post-Emergence at 250 g/ha) | damage to plant (100=total damage; 0=no damage) SETFA ([5]; Post-Emergence at 15.625 g/ha) | damage to plant (100=total damage; 0=no damage) SETFA ([5]; Post-Emergence at 62.5 g/ha) | damage to plant (100=total damage; 0=no damage) SETFA ([5]; Post-Emergence at 250 g/ha) | damage to plant (100=total damage; 0=no damage) ECHCG ([6]; Pre-Emergence at 15.625 g/ha) | damage to plant (100=total damage; 0=no damage) ECHCG ([6]; Pre-Emergence at 62.5 g/ha) | damage to plant (100=total damage; 0=no damage) ECHCG ([6]; Pre-Emergence at 250 g/ha) | damage to plant (100=total damage; 0=no damage) ZEAMX ([7]; Pre-Emergence at 15.625 g/ha) | damage to plant (100=total damage; 0=no damage) ZEAMX ([7]; Pre-Emergence at 62.5 g/ha) | further results |
| --- | --- | --- | --- | --- | --- | --- | --- | --- | --- | --- | --- | --- | --- | --- | --- | --- | --- | --- | --- | --- | --- |
| CN1CC(c2cc(Cl)n(C)n2)C(C(=O)Nc2ccc(F)cc2F)C1=O (racemic) [Compound 29] | 20 | 30 | 80 | 0 | 0 | 10 | 0 | 0 | 0 | 10 | 30 | 40 | 10 | 20 | 60 | 30 | 70 | 80 | 0 | 10 | damage to plant (100=total damage; 0=no damage) ZEAMX ([7]; Pre-Emergence at 250 g/ha): 10; damage to plant (100=total damage; 0=no damage) ZEAMX ([8]; Post-Emergence at 15.625 g/ha): 0; damage to plant (100=total damage; 0=no damage) ZEAMX ([8]; Post-Emergence at 62.5 g/ha): 0; damage to plant (100=total damage; 0=no damage) ZEAMX ([8]; Post-Emergence at 250 g/ha): 0; damage to plant (100=total damage; 0=no damage) ECHCG ([9]; Post-Emergence at 15.625 g/ha): 20; damage to plant (100=total damage; 0=no damage) ECHCG ([9]; Post-Emergence at 62.5 g/ha): 50; damage to plant (100=total damage; 0=no damage) ECHCG ([9]; Post-Emergence at 250 g/ha): 60; damage to plant (100=total damage; 0=no damage) AMARE ([10]; Pre-Emergence at 15.625 g/ha): 0; damage to plant (100=total damage; 0=no damage) AMARE ([10]; Pre-Emergence at 62.5 g/ha): 0; damage to plant (100=total damage; 0=no damage) AMARE ([10]; Pre-Emergence at 250 g/ha): 0; damage to plant (100=total damage; 0=no damage) ABUTH ([11]; Pre-Emergence at 15.625 g/ha): 0; damage to plant (100=total damage; 0=no damage) ABUTH ([11]; Pre-Emergence at 62.5 g/ha): 0; damage to plant (100=total damage; 0=no damage) ABUTH ([11]; Pre-Emergence at 250 g/ha): 0; damage to plant (100=total damage; 0=no damage) ABUTH ([12]; Post-Emergence at 15.625 g/ha): 0; damage to plant (100=total damage; 0=no damage) ABUTH ([12]; Post-Emergence at 62.5 g/ha): 0; damage to plant (100=total damage; 0=no damage) ABUTH ([12]; Post-Emergence at 250 g/ha): 0 |
| CN1C[C@H](c2nn(C)c3c(Cl)cccc23)[C@@H](C(=O)Nc2cccc(F)c2F)C1=O [Compound 5] | 0 | 30 | 80 | 0 | 0 | 0 | 0 | 0 | 0 | 0 | 0 | 0 | 10 | 50 | 80 | 0 | 20 | 80 | 0 | 0 | damage to plant (100=total damage; 0=no damage) ZEAMX ([7]; Pre-Emergence at 250 g/ha): 0; damage to plant (100=total damage; 0=no damage) ZEAMX ([8]; Post-Emergence at 15.625 g/ha): 0; damage to plant (100=total damage; 0=no damage) ZEAMX ([8]; Post-Emergence at 62.5 g/ha): 0; damage to plant (100=total damage; 0=no damage) ZEAMX ([8]; Post-Emergence at 250 g/ha): 0; damage to plant (100=total damage; 0=no damage) ECHCG ([9]; Post-Emergence at 15.625 g/ha): 0; damage to plant (100=total damage; 0=no damage) ECHCG ([9]; Post-Emergence at 62.5 g/ha): 60; damage to plant (100=total damage; 0=no damage) ECHCG ([9]; Post-Emergence at 250 g/ha): 80; damage to plant (100=total damage; 0=no damage) AMARE ([10]; Pre-Emergence at 15.625 g/ha): 0; damage to plant (100=total damage; 0=no damage) AMARE ([10]; Pre-Emergence at 62.5 g/ha): 0; damage to plant (100=total damage; 0=no damage) AMARE ([10]; Pre-Emergence at 250 g/ha): 30; damage to plant (100=total damage; 0=no damage) ABUTH ([11]; Pre-Emergence at 15.625 g/ha): 0; damage to plant (100=total damage; 0=no damage) ABUTH ([11]; Pre-Emergence at 62.5 g/ha): 0; damage to plant (100=total damage; 0=no damage) ABUTH ([11]; Pre-Emergence at 250 g/ha): 10; damage to plant (100=total damage; 0=no damage) ABUTH ([12]; Post-Emergence at 15.625 g/ha): 0; damage to plant (100=total damage; 0=no damage) ABUTH ([12]; Post-Emergence at 62.5 g/ha): 0; damage to plant (100=total damage; 0=no damage) ABUTH ([12]; Post-Emergence at 250 g/ha): 0 |
| CN1CC(c2nn(C)c(Cl)c2Br)C(C(=O)Nc2cccc(F)c2F)C1=O (racemic) [Compound 28] | 20 | 80 | 90 | 0 | 0 | 0 | 0 | 0 | 0 | 30 | 40 | 50 | 10 | 30 | 70 | 30 | 70 | 90 | 0 | 0 | damage to plant (100=total damage; 0=no damage) ZEAMX ([7]; Pre-Emergence at 250 g/ha): 0; damage to plant (100=total damage; 0=no damage) ZEAMX ([8]; Post-Emergence at 15.625 g/ha): 0; damage to plant (100=total damage; 0=no damage) ZEAMX ([8]; Post-Emergence at 62.5 g/ha): 0; damage to plant (100=total damage; 0=no damage) ZEAMX ([8]; Post-Emergence at 250 g/ha): 0; damage to plant (100=total damage; 0=no damage) ECHCG ([9]; Post-Emergence at 15.625 g/ha): 30; damage to plant (100=total damage; 0=no damage) ECHCG ([9]; Post-Emergence at 62.5 g/ha): 50; damage to plant (100=total damage; 0=no damage) ECHCG ([9]; Post-Emergence at 250 g/ha): 70; damage to plant (100=total damage; 0=no damage) AMARE ([10]; Pre-Emergence at 15.625 g/ha): 0; damage to plant (100=total damage; 0=no damage) AMARE ([10]; Pre-Emergence at 62.5 g/ha): 0; damage to plant (100=total damage; 0=no damage) AMARE ([10]; Pre-Emergence at 250 g/ha): 0; damage to plant (100=total damage; 0=no damage) ABUTH ([11]; Pre-Emergence at 15.625 g/ha): 0; damage to plant (100=total damage; 0=no damage) ABUTH ([11]; Pre-Emergence at 62.5 g/ha): 0; damage to plant (100=total damage; 0=no damage) ABUTH ([11]; Pre-Emergence at 250 g/ha): 0; damage to plant (100=total damage; 0=no damage) ABUTH ([12]; Post-Emergence at 15.625 g/ha): 0; damage to plant (100=total damage; 0=no damage) ABUTH ([12]; Post-Emergence at 62.5 g/ha): 0; damage to plant (100=total damage; 0=no damage) ABUTH ([12]; Post-Emergence at 250 g/ha): 0 |
